Consider 2 compounds from patent US20250042961A1, “P53 PEPTIDOMIMETIC MACROCYCLES” (MERCK SHARP & DOHME LLC, priority 2021, published 2025).

In one series the target is T1, MDM2 (1-125) (Homo sapiens, UniProt Q00987).
T1 construct: GST (N); His6 (N); TEV cleavage site ENLYFQG (N); made in house; host or cells: Escherichia coli BL21 (DE3) Rosetta T1R
The series can be described thus: Competitive fluorescence anisotropy assay (FP Kd MDM2). The series is classed as binding. An excerpt:
For use in the peptide binding assay, a human MDM2 1-125 sequence was cloned into a pNIC-GST vector. The TEV (tobacco etch virus) cleavage site was changed from ENLYFQS (SEQ ID NO: 13) to ENLYFQG (SEQ ID NO: 14) to give a fusion protein with the following sequence:
[P] is the protein concentration (MDM2), [L] is the labeled peptide concentration, r is the anisotropy measured, r0 is the anisotropy of the free peptide, rb is the anisotropy of the MDM2-FAM-labeled peptide complex, Kd is the dissociation constant, [L]t is the total FAM labeled peptide concentration, and [P]t is the total MDM2 concentration. […] These values were then used to determine apparent Kd values of the respective competing ligands in subsequent competition assays in fluorescence anisotropy experiments. MDM2 and MDM4 competition experiments were performed with their respective concentrations held constant at 250 nM and 75 nM, in the presence of 50 nM of FAM-labeled 12/1. The competing molecules were then titrated against the complex of the FAM-labeled peptide and protein. Apparent Kd values were determined by fitting the experimental data to the equations shown below:
[L]st and [L]t denote labeled ligand and total unlabeled ligand input concentrations, respectively. Kd2 is the dissociation constant of the interaction between the unlabeled ligand and the protein.
In all competition experiments, it is assumed that [P]t>[L]st, otherwise considerable amounts of free labeled ligand would always be present and would interfere with measurements. Kd1 is the apparent Kd for the labeled peptide used and has been experimentally determined as described in the previous paragraph. The FAM-labeled peptide was dissolved in dimethyl sulfoxide (DMSO) at 1 mM and diluted into experimental buffer. Readings were carried out with an Envision Multilabel Reader (PerkinElmer). Experiments were carried out in PBS (2.7 mM KCl, 137 mM NaCl, 10 mM Na2HPO4 and 2 mM KH2PO4 (pH 7.4)) and 0.1% Tween-20 buffer. All titrations were carried out in triplicate. Curve-fitting was carried out using Prism 4.0 (GraphPad®). […] Negative control titrations of the ligands under investigation were also carried out with the fluorescently labeled peptide (in the absence of MDM2) to ensure no interactions were occurring between the ligands and the FAM-labeled peptide. […] Measurements were taken a minimum of three times (biological replicates) and values are reported as geometric means of the replicates.

Series [1] deals with p53 responsive β-lactamase reporter in HCT116 cells. The series can be described thus: p53 beta-lactamase reporter gene cellular functional assay. It counts as cell-based. The protocol:
HCT116 cells were stably transfected with a p53 responsive β-lactamase reporter and expanded in McCoy's 5A Medium with 10% fetal bovine serum (FBS), Blasticidin, and Penicillin/Streptomycin and then transferred to 1.5 mL freezing vials and stored under liquid nitrogen in growth media containing 5% DMSO. […] The cells were then seeded into a 384-well plate at a density of 8000 cells per well. […] The final working concentration of DMSO was 0.5%. β-lactamase activity was detected using the ToxBLAzer Dual Screen (Invitrogen), as per the manufacturer's instructions. Measurements were made using the Envision multiplate reader (PerkinElmer). […] Measurements were taken a minimum of three times (biological replicates) and values are reported as geometric means of the replicates.

A further series concerns HCT116 cells. It counts as cell-based. Conditions: serum condition not stated; read-out: LDH-release EC50. The protocol: HCT116 cells were stably transfected with a p53 responsive β-lactamase reporter and expanded in McCoy's 5A Medium with 10% fetal bovine serum (FBS), Blasticidin, and Penicillin/Streptomycin and then transferred to 1.5 mL freezing vials and stored under liquid nitrogen in growth media containing 5% DMSO. One day prior the assay, a vial of banked cells was recovered in a cell culture flask and incubated for 24 hours, followed by removal of cell growth media and replacement with Opti-MEM containing 2% FBS. The cells were then seeded into a 384-well plate at a density of 8000 cells per well. […] The final working concentration of DMSO was 0.5%. Lactate dehydrogenase release was detected using the CytoTox-ONE Homogenous Membrane Integrity Assay Kit (Promega), as per the manufacturer's instructions. Measurements were carried out using the Tecan plate reader. Maximum LDH release was defined as the amount of LDH released as induced by the lytic peptide (iDNA79) and used to normalize the results. Measurements were taken a minimum of three times (biological replicates) and values are reported as geometric means of the replicates.

Series [2] has as its system Jump-In T-REx CHO-K1 BLA cells. In words: Tetracycline beta-lactamase reporter gene cellular assay (counterscreen). It counts as cell-based. The protocol: This assay was based on Jump-In™ T-REx™ CHO-K1 BLA cells containing a stably integrated β-lactamase under the control of an inducible cytomegalovirus (CMV) promoter. Cells were maintained in Dulbecco's Minimal Eagle Medium (DMEM) with 10% fetal bovine serum (FBS), Blasticidin, and Penicillin/Streptomycin and then transferred to 1.5 mL freezing vials and stored under liquid nitrogen in growth media containing 5% DMSO. […] Cells were seeded into a 384-well plate at a density of 4000 cells per well. […] The final working concentration of DMSO was 0.5%. β-lactamase activity was detected using the ToxBLAzer Dual Screen (Invitrogen), as per the manufacturer's instructions. Measurements were carried out using the Envision multiplate reader (PerkinElmer). Counterscreen activity was defined as the amount of β-lactamase activity induced by tetracycline. Measurements were taken a minimum of three times (biological replicates) and values are reported as geometric means of the replicates.
In general terms: A reporter such as luciferase makes a cellular process visible.

The next series has as its system HCT116. The series is classed as cell-based. An excerpt:
(§1) To further establish the impact of the above modification in making cleaner “drug” like compounds, we profiled a set of compounds of the invention in cellular proliferation assays (Table 3).

The next series has as its system p53 null Ca Ski. The series is classed as cell-based. Conditions: 72 h.
Source text: as §1

Series [3] is described as follows: Helicity stated in text (method not given). Particulars: aqueous solution for compound 6. The series is classed as physicochemical.
Where [4] appears, read: read-out: p53 activity EC50 (0% FBS, 4 h), 0% FBS, 4 h.
[5] abbreviates: read-out: p53 activity EC50 (10% FBS, 16 h), 10% FBS, 16 h.
[6] abbreviates: read-out: Counter screen EC50 (0% FBS, 4 h), 0% FBS, 4 h.
Where [7] appears, read: read-out: Counter screen EC50 (10% FBS, 16 h), 10% FBS, 16 h.

Each structure is given as a SMILES string. Like-named read-outs stand apart in the source and are kept apart here. *1 amine or outer side, *2 acyl side, *3 side chain or, on linkers, in order; H or OH if unused. Where a SMILES comes first, the peptide text is derived from it. Bridges are numbered along the chain shown (N, C = ends). [ ]: non-standard residue; d: D form. ξ: configuration not given here. ξαMeNle(6-ylidene) = CC(CCCC=[*:3])(N[*:1])C(=O)[*:2]; dPhe(4-CF3) = N[C@H](Cc1ccc(C(F)(F)F)cc1)C(=O)O; dTrp(6-F) = N[C@H](Cc1c[nH]c2cc(F)ccc12)C(=O)O

T1 sequence (Q00987 with tags, fused parts or gaps): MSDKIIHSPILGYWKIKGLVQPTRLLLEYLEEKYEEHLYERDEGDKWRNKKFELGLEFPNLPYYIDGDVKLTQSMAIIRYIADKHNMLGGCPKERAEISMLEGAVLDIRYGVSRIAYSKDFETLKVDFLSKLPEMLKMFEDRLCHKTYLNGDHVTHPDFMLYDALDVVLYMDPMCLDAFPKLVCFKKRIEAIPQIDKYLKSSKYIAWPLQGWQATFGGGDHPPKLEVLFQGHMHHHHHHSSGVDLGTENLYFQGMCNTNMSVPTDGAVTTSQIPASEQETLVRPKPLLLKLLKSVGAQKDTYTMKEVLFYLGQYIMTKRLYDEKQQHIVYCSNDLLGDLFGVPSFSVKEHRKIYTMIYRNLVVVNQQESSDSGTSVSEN

Consider `CC(=O)N[C@@H](C(=O)N[C@H](C)C(=O)N[C@H](Cc1c[nH]c2cc(F)ccc12)C(=O)N[C@H](Cc1ccc(O)cc1)C(=O)N[C@H](C)C(=O)NC1(C)CCC/C=C\CCCC(C)(C(=O)N[C@H](CC(C)C)C(=O)N[C@H](CO)C(N)=O)NC(=O)[C@@H](CCC(N)=O)NC(=O)[C@@H](CCC(=O)O)NC(=O)[C@@H](Cc2ccc(C(F)(F)F)cc2)NC1=O)[C@H](C)O` (stereo partly drawn) [Compound 2, Acetyl-^DPMI-δ-(6-10 olefinstaple) (D-K9D-Q, D-R12D-S)-NH2] (Ac-[dT][dA][dTrp(6-F)][dY][dA][ξαMeNle(6-ylidene)][dPhe(4-CF3)][dE][dQ][ξαMeNle(6-ylidene)][dL][dS]-NH2; staple (Z) 6-10), for which the Kd – broadly, the equilibrium constant for the complex coming apart – on MDM2 (1-125) was 0.258 µM. Besides, the “improvement of p53 reporter gene functional cellular activity” value in [1] (0% serum, versus compound 1) is recorded as 3 fold. Moreover, the EC50 (in general, the concentration that produces a half-maximal response) in [1] (setting [4]) is 3.6 µM; in [1] (setting [5]), greater than 50 µM; with HCT116 cells, greater than 50 µM; in series [2] (setting [6]), greater than 50 µM; in series [2] (setting [7]), greater than 50 µM; in [2] (serum condition not stated, read-out: counterscreen EC50) it was greater than 50 µM. Moreover, the EC50 amounted to 9.1 µM with HCT116 (72 h) and 30.4 µM in the series on p53 null Ca Ski. Also, the “HCT116 proliferation % Max” value in the series with HCT116 (72 hours, 10% serum) was found to be 80%.
In the case of `CC(=O)N[C@@H](C(=O)N[C@H](C)C(=O)N[C@H](Cc1c[nH]c2cc(F)ccc12)C(=O)N[C@H](Cc1ccc(O)cc1)C(=O)N[C@H](C)C(=O)NC1(C)CCC/C=C\CCCC(C)(C(=O)N[C@H](CC(C)C)C(=O)N[C@H](CO)C(=O)N[C@H](C)C(=O)N[C@H](Cc2ccccc2)C(=O)N[C@H](C)C(=O)N[C@H](C)C(=O)N[C@H](C)C(=O)N[C@H](C)C(N)=O)NC(=O)[C@@H](CCC(N)=O)NC(=O)[C@@H](CCC(=O)O)NC(=O)[C@@H](Cc2ccc(C(F)(F)F)cc2)NC1=O)[C@H](C)O.N` (stereo partly drawn) [Compound 6] (Ac-[dT][dA][dTrp(6-F)][dY][dA][ξαMeNle(6-ylidene)][dPhe(4-CF3)][dE][dQ][ξαMeNle(6-ylidene)][dL][dS][dA][dF][dA][dA][dA][dA]-NH2; staple (Z) 6-10), the affinity on MDM2 (1-125), expressed as Kd, was 0.03 µM. The EC50 in series [1] (setting [4]) is 9.65 µM; in series [1] (setting [5]), 1.75 µM; in series [2] (setting [6]) it was greater than 50 µM; in series [2] (setting [7]), greater than 50 µM. For the same compound, the helicity result in [3] is reported as “about 65%”. Further, in the series “physchem”, the chromatographic logD (in general, a lipophilicity value derived from retention on a column) was 3.06. Moreover, the solubility (as a rule, the concentration that dissolves in the medium under given conditions) in “Solubility (PBS, pH 7)” is 146 µM.
